We go through one molecule from patent US10654855B2 (priority 2007, dated 2020).

pIC50: −log10 of the molar value.

Broadly, the pIC50 is −log10 of the IC50, conventionally taken in molar units.

In this test the target is AKT1 (PKBα) (Homo sapiens (Human), UniProt P31749). As to conditions: read-out: In vitro PKBα Mean IC50; AKT1/PKBα active enzyme; values marked * tested once only.
Chain of AKT1 (PKBα) (P31749 whole entry): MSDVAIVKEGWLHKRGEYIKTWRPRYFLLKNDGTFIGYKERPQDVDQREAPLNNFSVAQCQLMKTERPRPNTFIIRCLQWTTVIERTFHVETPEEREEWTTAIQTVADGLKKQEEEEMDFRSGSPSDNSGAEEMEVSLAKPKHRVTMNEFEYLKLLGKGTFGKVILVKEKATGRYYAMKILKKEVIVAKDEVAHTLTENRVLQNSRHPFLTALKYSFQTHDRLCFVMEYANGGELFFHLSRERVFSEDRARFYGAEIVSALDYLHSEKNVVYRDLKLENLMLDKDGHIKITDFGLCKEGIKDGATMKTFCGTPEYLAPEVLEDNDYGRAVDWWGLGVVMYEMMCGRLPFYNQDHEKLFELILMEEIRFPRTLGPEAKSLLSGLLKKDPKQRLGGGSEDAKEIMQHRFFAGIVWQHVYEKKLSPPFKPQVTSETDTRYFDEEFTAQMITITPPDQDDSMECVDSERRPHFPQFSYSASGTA

Consider `C[C@H](NC(=O)C1(N)CCN(c2ncnc3[nH]ccc23)CC1)c1ccc(C#N)cc1` [Example 39, 4-amino-N-[(1S)-1-(4-cyanophenyl)ethyl]-1-(7H-pyrrolo[2,3-d]pyrimidin-4-yl)piperidine-4-carboxamide], for which the pIC50 was 7.30.
